The source of these data is patent US11813277B2, “Methods and agents for modulating inflammation” (The Regents of the University of California, priority 2018, dated 2023).

Experiment [1] concerns phosphate (Pi) transporter. The experiment can be described thus: Phosphate transporter assay (mitochondrial swelling). Format: biochemical, rat. As to conditions: 250 μM etomoxir, 100 μM NEM, 10 μM mersalyl. How it is done:
Phosphate transport was measured by monitoring swelling of de-energized mitochondria in isotonic potassium phosphate medium based upon principles described by Coty, W. A. and Pedersen, P. L. (1975) Phosphate transport in rat liver mitochondria. Kinetics, inhibitor sensitivity, energy requirements, and labeled components. Mol Cell Biochem. 9, 109-24. As the phosphate carrier acts as electroneutral symporter with protons, the process is self-restricting due to generation of an opposing pH gradient. […] In the presence of nigericin, the proton fluxes cycle resulting in electro- and pH-neutral transport of potassium phosphate down its concentration gradient into the mitochondrial matrix, resulting in osmotic accumulation of water. Under these conditions, transport is limited by the activity of phosphate carrier, and can be recorded as mitochondrial swelling (a decrease in light scattering).
The measurements were performed in an LS-50B spectrofluorometer (Perkin-Elmer) at 540 nm. Assay medium contained 125 mM potassium phosphate, pH 7.2, 0.5 mM EGTA, and 2 μM rotenone. Mouse liver mitochondria (0.5 mg/ml) were treated with 250 μM etomoxir, 100 μM N-ethylmaleimide (NEM) (Klingenberg, M., Durand, R., and Guerin, B. (1974) Analysis of the reactivity of SH-reagents with the mitochondrial phosphate carrier. Eur J Biochem, 42, 135-150) or 10 μM mersalyl (Paradies, G. and Ruggiero, F. M. (1991) Effect of aging on the activity of the phosphate carrier and on the lipid composition in rat liver mitochondria. Arch Biochem Biophys. 284, 332-337) and the reaction was started with 5 μM nigericin. Typical traces from 3 experiments are shown. To establish the maximally swollen state of mitochondria, 80 μg/ml alamethicin was used.

Experiment [2] concerns M(IL-4) polarization of BMDMs. The experiment can be described thus: Flow cytometry of IL-4-associated cell surface markers in BMDMs. The experiment is classed as cell-based, mouse. As to conditions: for number of cells positive for both CD206 and CD71: IL-4; for population of CD206+/CD71+ cells: oxidative phosphorylation inhibitors co-treated with IL-4. How it is done:
(§1) For all gene expression and flow cytometry experiments described below, day 6 BMDM were plated at 3×10^5 cell/well in 12-well plates. The next day, cells were treated with appropriate compounds (and duration as indicated in figures and below) in DMEM supplemented with 5% FBS, 2 mM L-glutamine, 100 units/mL, 100 μg/mL penicillin/streptomycin, 500 μM of sodium pyruvate and 5% v/v conditioned media containing macrophage colony stimulating factor (M-CSF).
(§2) For flow cytometry experiments involving etomoxir (FIG. 1G, FIG. 2A, FIG. 2D, FIG. 3A, FIG. 3B, FIG. 3G, FIG. 3H): BMDMs were mock-treated (media replacement only) or treated with 20 ng/mL of IL-4±3 μM or 200 μM of etomoxir for 48 hr. When measuring expression of M(IL-4)-associated genes in response to etomoxir (FIG. 1H, FIG. 2B), BMDMs were mock-treated or treated with 20 ng/mL of IL4±etomoxir as indicated for 24 hr.
(§3) For experiments involving respiratory chain inhibitors: BMDMs were mock-treated (media replacement only) or treated with 20 ng/mL of IL4±1.2 μM oligomycin (Oligo), 200 nM rotenone (Rot), 200 nM antimycin A (AntiA), 100 nM piericidin A (PierA), or 5 μM carboxyatractylate (CAT) for either 24 (FIG. 4G, FIG. 4H, FIG. 6G) or 48 hr (FIG. 4F, FIG. 7D). All inhibitors were given as co-treatments simultaneously with IL-4.
For experiments involving CoA supplementation (FIG. 10A, FIG. 10B, FIG. 10C, FIG. 10D, FIG. 10E, FIG. 9C, FIG. 9D): BMDMs were mock-treated (media replacement only) or treated with 20 ng/mL of IL4±etomoxir (concentration indicated in figures)±CoA (concentration indicated in figures) for 48 hr. Etomoxir and CoA were given as co-treatments simultaneously with IL-4.
Prior to FACS analysis, BMDMs were detached using 350 μL of Accutase, followed by two washes with FACS buffer (PBS+1% (v/v) BSA+0.05% (w/v) sodium azide). Anti-mouse CD16/32 antibody was used at a dilution of 1:500, while all other antibodies were used at a dilution of 1:250. All flow cytometry data were captured using BD FACSVerse flow cytometer and analyzed using the FlowJo X 10.0.7r2 software. In all, 2×104 live events were acquired for each sample (gated on DAPIneg). For analysis, CD206+/CD71+ and CD206+/CD301+ populations were gated based on Fluorescence Minus One (FMO) controls.
(A flow cytometer gives signals particle by particle.)

Experiment [3] relates to Relma, Mgl2, Ym1, Fabp4, Arg1 expression. The experiment can be described thus: qPCR of IL-4-associated genes in BMDMs. Format: cell-based, mouse. As to conditions: for IL-4-induced expression of Relma, Ym1, Mgl2: electron transport chain inhibitors. The protocol: as §1, §2, §3
RNA was isolated with TRIzol, then cDNA was synthesized with high-capacity cDNA reverse transcription kit. KAPA SYBR FAST qPCR Master Mix kit and a LightCycler 480 were used for quantitative RT-PCR. Fold change related to the control group was calculated using […] with 36b4 as the reference gene.
(Real-time PCR tracks product formation cycle by cycle.)

In experiment [4] the test system is adenine nucleotide translocase (ANT). The experiment can be described thus: ATP hydrolysis in isolated mitochondria, intact or alamethicin-permeabilized. Format: biochemical, rat. The text has this:
ATP hydrolysis in isolated mitochondria (McQuaker, S. J., Quinlan, C. L., Caldwell, S. T., Brand, M. D., and Hartley, R. C. (2013). A prototypical small molecule modulator uncouples mitochondria in response to endogenous hydrogen peroxide production. Chembiochem. 14, 993-1000; Divakaruni, A. S., Andreyev, A. Y., Rogers, G. W., and Murphy, A. N. (2017a) In situ measurements of mitochondrial matrix enzyme activities using plasma and mitochondrial membrane permeabilization agents. Anal. Biochem. 17, 30385-8) was performed in MAS buffer, and stimulated by respiratory chain inhibition (1 μM rotenone and 2 μM antimycin A) followed by addition of excess ATP (25 mM) and uncoupler (1 μM FCCP). Hydrolysis was inhibited by injection of either oligomycin (3 ng/mg mitochondrial protein) or carboxyatractylo side (7.5 ng/mg mitochondrial protein). Rates of extracellular acidification (ECAR, in mpH/min) were converted to proton production rates (PPR, in pmol H+/min) by determining the buffer capacity with sequential injections of HCl and H2SO4 (Mookerjee, S. A., Goncalves, R. L., Gerencser, A. A., Nicholls, D. G., and Brand, M. D. (2015). The contributions of respiration and glycolysis to extracellular acid production. Biochim et Biophys Acta. 1847, 171-81). 10 μg/mL alamethicin was used to permeabilize the mitochondrial inner membrane (1 μg/mg mitochondrial protein).

Another experiment deals with BMDMs. Briefly: Basal mitochondrial respiration in intact BMDMs. Format: cell-based, mouse. As to conditions: 1.2 μM oligomycin, 200 nM rotenone, 200 nM antimycin A, 100 nM piericidin A, 5 μM CAT. The protocol: All respirometry studies were conducted in either a Seahorse XF96 or XFe96 Analyzer. All experiments were conducted at 37° C., and at pH 7.4 (intact cells) or 7.2 (permeabilized cells and isolated mitochondria). Calculation of respiratory parameters was made according to standard protocols (Divakaruni, A. S., Paradyse, A., Ferrick, D. A., Murphy, A. N., and Jastroch, M. (2014a) Analysis and interpretation of microplate-based oxygen consumption and pH data. Meth. Enzym 547, 509-54), and all rates were corrected for non-mitochondrial respiration/background signal by subtracting the oxygen consumption rate insensitive to rotenone plus antimycin A.
Respiration in intact BMDMs was measured in medium containing 8 mM glucose, 2 mM glutamine, 2 mM pyruvate, and 5 mM HEPES. Cells were plated at 5.0×10^4 cells/well and assayed after 48 hr. When measuring the response to IL-4, cells were treated with 20 ng/mL of IL-4 24 hr. after initial plating, and respiration was measured the following day (˜48 hr after initial seeding). […]

In the next experiment the test system is LCFA oxidation in BMDMs. Briefly: 9,10-3H-palmitate oxidation (3H2O release) in BMDMs. The experiment is classed as cell-based, mouse. As to conditions: 200 nM rotenone or 200 nM antimycin A, IL-4-stimulated. How it is done:
BMDMs at day 6 of differentiation were seeded at 3×10^5 cells/well in 12 well plates in BMDM media. The next day, cells were treated in DMEM containing 25 mM glucose supplemented with 5% FBS, 2 mM L-Glutamax, 100 units/mL, 100 μg/mL penicillin/streptomycin, 1 mM of sodium pyruvate, 1 mM carnitine, and 5% v/v conditioned media containing macrophage colony stimulating factor (M-CSF) under one of 5 conditions: control, 20 ng/mL of IL-4±3 μM or 200 μM of etomoxir, or 200 nM rotenone, or 200 nM antimycin A for 24 hr. Fatty acid oxidation was measured 24 hours later as previously described (Rognstad, R. (1991) Estimation of peroxisomal and mitochondrial fatty acid oxidation in rat hepatocytes using tritiated substrates. Biochem J 279:147-150, 1991; Cha, B. S., Ciaraldi, T. P., Park, K. S., Carter, L., Mudaliar, S. R., and Henry R R. (2005) Impaired fatty acid metabolism in type 2 diabetic skeletal muscle cells is reversed by PPARgamma agonists. Am J Physiol Endocrinol Metab. 289, E151-9) following a fluid change to DMEM with components as described above except 10 mM glucose and 0.2 μCi (final concentration of 5 μM) BSA-conjugated [9,10-3H]palmitic acid. No additional IL-4 was added at the time of this fluid change, but etomoxir, rotenone and antimycin A were added, and the plates were placed in a […] incubator at 37° C. for 3 hr. After incubation, a 100 μL aliquot of the culture medium was passed over an ion-exchange resin, and the column was washed twice with 0.75 ml of water. Free fatty acids were retained by the resin, whereas the tritium hydrolyzed from radiolabeled palmitate catabolism was released as labeled water, which passes freely through the resin, and is subsequently counted for radioactivity. All data are corrected for protein content in each well. There were 3 technical replicates for each condition, and 4 biological replicates arising from 4 separate animals.

[5] abbreviates: alamethicin-permeabilized mitochondria.
Setting [6] is: intact isolated mitochondria, etomoxir 100 μM, CAT 7.5 ng/mg, oligomycin 3 ng/mg.

With `CCN1C(=O)C=CC1=O` [N-ethyl maleimide, N-ethylmaleimide], in experiment [1], the “Pi transporter activity (rate of swelling)” value is given as “inhibited the rate of swelling”.
With `CC(=O)SCCNC(=O)CCNC(=O)[C@H](O)C(C)(C)COP(=O)(O)OP(=O)(O)OC[C@H]1O[C@@H](n2cnc3c(N)ncnc32)[C@H](O)[C@@H]1OP(=O)(O)O` [acetyl CoA], the “number of cells positive for both CD206 and CD71” value in experiment [2] (500 μM acetyl CoA) is “cannot reproduce the effect of CoA”; in experiment [2] (acetyl CoA with CoA, both 500 μM), “counteracts the effect of CoA”. Further, the “expression of Arg1, Mgl2 and Fabp4” value in experiment [3] (500 μM acetyl CoA) is given as “different effects than CoA”.
Consider `C=C1[C@@H]2CC[C@H]3[C@]4(C)C[C@H](O[C@@H]5O[C@H](CO)[C@@H](OS(=O)(=O)O)[C@H](OS(=O)(=O)O)[C@H]5OC(=O)CC(C)C)CC(C(=O)O)(C(=O)O)[C@H]4CC[C@]3(C2)[C@H]1O` [carboxyatractyloside], for which the “population of CD206+/CD71+ cells” value in experiment [2] is on record as “none of the inhibitors of ATP synthesis or the electron transport chain significantly lowered”. The ATP hydrolysis result is listed as “no effect” in experiment [4] (setting [5]) and “inhibited ATP hydrolysis” in experiment [4] (setting [6]). In the experiment on BMDMs, the “respiration at 24 hr” value is reported as “strongly reduced respiration”.
As to `COC(CNC(=O)c1ccccc1OCC(=O)O)[CH2][Hg][OH]` (stereo not drawn) [mersalyl], in experiment [1], the “Pi transporter activity (rate of swelling)” value was “inhibited the rate of swelling”.
On to `CC[C@H]1/C=C/C=C/C[C@@H](C)[C@H](O)[C@@](C)(O)C(=O)[C@@H](C)[C@H](O)[C@@H](C)C(=O)[C@@H](C)[C@H](O)[C@@H](C)/C=C/C(=O)O[C@@H]2[C@H](C)[C@H](CC1)O[C@]1(CC[C@H](C)[C@H](C[C@@H](C)O)O1)[C@H]2C` [oligomycin], for which the “population of CD206+/CD71+ cells” value in experiment [2] is “none of the inhibitors of ATP synthesis or the electron transport chain significantly lowered”. Besides, the figures for the ATP hydrolysis entry in experiment [4] (setting [5]) and in experiment [4] (setting [6]) were “remained inhibitory” and “inhibited ATP hydrolysis”, respectively. The “respiration at 24 hr” value in the experiment with BMDMs is reported as “strongly reduced respiration”.
As for `C/C=C(\C)[C@H](O)[C@H](C)/C=C(C)/C=C/C/C(C)=C/Cc1nc(OC)c(OC)c(O)c1C` [piericidin A], the “population of CD206+/CD71+ cells” value in experiment [2] is recorded as “none of the inhibitors of ATP synthesis or the electron transport chain significantly lowered”. The “IL-4-induced expression of Relma, Ym1, Mgl2” value in experiment [3] (IL-4, 24 hr) is “failed to reduce”. Also, the “expression of Ym1 and Arg1” value in experiment [3] (mitochondrial inhibitors, IL-4, 24 hr) is on record as “increased expression”. For the same molecule, in the experiment on BMDMs, the “respiration at 24 hr” value is recorded as “strongly reduced respiration”.
For antimycin A, the “3H2O release from 9,10-3H-palmitate” value with LCFA oxidation in BMDMs was “suppressed LCFA oxidation to levels in line with 200 μM etomoxir”. Moreover, the “population of CD206+/CD71+ cells” value in experiment [2] is listed as “none of the inhibitors of ATP synthesis or the electron transport chain significantly lowered”. In addition, the “IL-4-induced expression of Relma, Ym1, Mgl2” value in experiment [3] (IL-4, 24 hr) is reported as “failed to reduce”. Moreover, the “respiration at 24 hr” value in the experiment with BMDMs is on record as “strongly reduced respiration”.
